Data set [1] concerns Klebsiella aerogenes. In words: assay of activity in units against culture filtrate. Format: cell-based. As to the method:
The MM 4550 (Complex) was eluted from the resin with 5% NaCl in 50% aqueous methanol. […] The MM 4550 (Complex) content of culture filtrate was arbitrarily set at 8 units/ml. The eluted fractions from the column were assayed using an antibacterial diffusion method against Klebsiella aerogenes and the activity units were calculated by reference to a standard line prepared by plotting zone diameter against units/ml. for various dilutions of culture filtrate (i.e. the culture filtrate was used as a standard).
The material produced above was arbitrarily assigned an activity of 340 l/ml. Assays were determined as described in Description 3.

Another data set has as its system Kleb. aerogenes A. In words: MIC, microtitre method (Table 10). It counts as cell-based. Conditions: heavy inoculum, 1/100 overnight broth. Here is the method: (§1) Partially purified MM 4550Adi-sodium salt (0.55 g) was chromatographed on a cellulose column (4.5 cm×29 cm; Whatman CC31 cellulose) eluted with n-propanol/water (4:1 v/v) at a flow rate of 2.5 ml./min. The first 135 ml of eluate was discarded and then 15 ml fractions collected.
(§2) ANTIBACTERIAL ACTIVITY OF THE DI-SODIUM
(§3) SALT OF MM 4550A ([…]-HEAVY
(§4) INOCULUM, 1/100 OVERNIGHT BROTH

Another data set has as its system Bacillus subtilis A. In words: MIC, microtitre method (Table 10). It counts as cell-based. The conditions noted are these: heavy inoculum, 1/100 overnight broth. Here is the method: as §1, §2, §3, §4
A further data set has as its system Enterobacter cloacae N1. In words: MIC, microtitre method (Table 10). It counts as cell-based. The conditions noted are these: heavy inoculum, 1/100 overnight broth. Here is the method: as §1, §2, §3, §4
Data set [2] has as its system Serratia marcescens US 39. Description: MIC, microtitre method (Table 10). The conditions noted are these: heavy inoculum, 1/100 overnight broth. It counts as cell-based. Here is the method: as §1, §2, §3, §4
The test system of another data set is Staph. aureus Oxford. In words: MIC, microtitre method (Table 10). It counts as cell-based. Conditions: heavy inoculum, 1/100 overnight broth. Here is the method:
as §1, §2, §3, §4

The test system of data set [3] is Salmonella typhimurium CT 10. Description: MIC, microtitre method (Table 10). Format: cell-based. The conditions noted are these: heavy inoculum, 1/100 overnight broth. As to the method: as §1, §2, §3, §4
Another data set has as its system Shigella sonnei. Description: MIC, microtitre method (Table 10). It counts as cell-based. Conditions: heavy inoculum, 1/100 overnight broth. As to the method:
as §1, §2, §3, §4

The next data set relates to Ps. aeruginosa A. Description: MIC, microtitre method (Table 10). It counts as cell-based. The conditions noted are these: heavy inoculum, 1/100 overnight broth. Here is the method:
as §1, §2, §3, §4

In another data set the test system is Proteus vulgaris WO 90. Description: MIC, microtitre method (Table 10). Format: cell-based. The conditions noted are these: heavy inoculum, 1/100 overnight broth. Here is the method:
as §1, §2, §3, §4

Another data set relates to Strep. faecalis. In words: MIC, microtitre method (Table 10). Conditions: heavy inoculum, 1/100 overnight broth. It counts as cell-based. As to the method:
as §1, §2, §3, §4

The subject of a further data set is Proteus mirabilis 13. Description: MIC, microtitre method (Table 10). It counts as cell-based. Conditions: heavy inoculum, 1/100 overnight broth. Here is the method: as §1, §2, §3, §4
A further data set concerns Staph. aureus Russell. Description: MIC, microtitre method (Table 10). Conditions: heavy inoculum, 1/100 overnight broth. It counts as cell-based. As to the method:
as §1, §2, §3, §4

Another data set deals with Prov. stuartii. In words: MIC, microtitre method (Table 10). It counts as cell-based. Conditions: heavy inoculum, 1/100 overnight broth. Here is the method: as §1, §2, §3, §4
Data set [4] has as its system Escherichia coli, Klebsiella aerogenes, Proteus mirabilis, Proteus morganii and Staphylococcus aureus Russell. In words: synergism with ampicillin (property list). Format: cell-based, bacteria. The conditions noted are these: sodium salt.
Data set [5] has as its system Staphylococcus aureus, Bacillus subtilis, Escherichia coli, Klebsiella aerogenes, Proteus mirabilis, Salmonella typhi and Pseudomonas aeruginosa. Description: antibacterial activity (property list). Format: cell-based, bacteria. The conditions noted are these: sodium salt.
The next data set concerns Salmonella typhi. Description: antibacterial activity by bioautography (Table 4). It counts as cell-based. Conditions: TLC with cellulose, butanol/isopropyl alcohol/water 7:7:6 v/v. From the text: (§5) Analysis of the preparation by thin layer chromatography on cellulose (Eastman Kodak "Chromagram" sheets) developed with n-butanol; isopropanol:water (7:7:6) separated two active substances, one with an approximate Rf of 0.54 which was designated MM 4550 A and one with an approximate Rf of 0.72 which was designated MM 13902.
(§6) 13902 AS DETERMINED BY BIOAUTOGRAPHY (TLC
(§7) WITH CELLULOSE AND BUTONAL/ISOPROPYL
(§8) ALCOHOL/WATER 7:7:6 v/v)

Data set [6] deals with Staphylococcus aureus (Oxford). In words: antibacterial activity by bioautography (Table 4). It counts as cell-based. Conditions: TLC with cellulose, butanol/isopropyl alcohol/water 7:7:6 v/v.
From the text: as §5, §6, §7, §8

Data set [7] deals with Klebsiella aerogenes. Description: antibacterial activity by bioautography (Table 4). Format: cell-based. Conditions: TLC with cellulose, butanol/isopropyl alcohol/water 7:7:6 v/v.
From the text: as §5, §6, §7, §8

In the next data set the test system is Escherichia coli 311. Description: antibacterial activity by bioautography (Table 4). Format: cell-based. The conditions noted are these: TLC with cellulose, butanol/isopropyl alcohol/water 7:7:6 v/v.
From the text: as §5, §6, §7, §8

Data set [8] deals with Staphylococcus aureus (Russell). Description: antibacterial activity by bioautography (Table 4). Conditions: TLC with cellulose, butanol/isopropyl alcohol/water 7:7:6 v/v. Format: cell-based.
From the text: as §5, §6, §7, §8

The test system of a further data set is Escherichia coli 10418. In words: antibacterial activity by bioautography (Table 4). Format: cell-based. The conditions noted are these: TLC with cellulose, butanol/isopropyl alcohol/water 7:7:6 v/v.
From the text: as §5, §6, §7, §8

The next data set relates to Proteus morganii. In words: antibacterial activity by bioautography (Table 4). Format: cell-based. Conditions: TLC with cellulose, butanol/isopropyl alcohol/water 7:7:6 v/v.
From the text: as §5, §6, §7, §8

For another data set, the system named is Proteus mirabilis. In words: antibacterial activity by bioautography (Table 4). It counts as cell-based. The conditions noted are these: TLC with cellulose, butanol/isopropyl alcohol/water 7:7:6 v/v.
From the text: as §5, §6, §7, §8

The next data set concerns Bacillus subtilis. Description: antibacterial activity by bioautography (Table 4). Format: cell-based. Conditions: TLC with cellulose, butanol/isopropyl alcohol/water 7:7:6 v/v.
From the text: as §5, §6, §7, §8

The subject of the next data set is Enterobacter aerogenes. In words: antibacterial activity by bioautography (Table 4). Format: cell-based. The conditions noted are these: TLC with cellulose, butanol/isopropyl alcohol/water 7:7:6 v/v.
From the text: as §5, §6, §7, §8

The test system of the next data set is trypsin. Description: enzyme inhibition (not a general enzyme poison). Format: biochemical. The conditions noted are these: at concentrations in excess of those required to inhibit the β-lactamase of E. coli.
Another data set concerns monoamine oxidase. Description: enzyme inhibition (not a general enzyme poison). Conditions: at concentrations in excess of those required to inhibit the β-lactamase of E. coli. It counts as biochemical.
Another data set can be described thus: stability. It counts as physicochemical.
A further data set concerns dopa decarboxylase. Description: enzyme inhibition (not a general enzyme poison). Conditions: at concentrations in excess of those required to inhibit the β-lactamase of E. coli. It counts as biochemical.
Another data set can be described thus: solubility. Format: physicochemical. The conditions noted are these: sodium salt.
Data set [9] concerns Staphylococcus aureus, Bacillus subtilis, Escherichia coli, Klebsiella aerogenes, Proteus mirabilis, Acinetobacter anitratus, Serratia marcescens and Shigella …. In words: antibacterial activity (property list). It counts as cell-based, bacteria. The conditions noted are these: substantially pure sodium salt.
For a further data set, the system named is urease. In words: enzyme inhibition (not a general enzyme poison). Format: biochemical. Conditions: at concentrations in excess of those required to inhibit the β-lactamase of E. coli.
The next data set relates to chymotrypsin. Description: enzyme inhibition (not a general enzyme poison). Format: biochemical. The conditions noted are these: at concentrations in excess of those required to inhibit the β-lactamase of E. coli.
For the next data set, the system named is carbonic anhydrase. Description: enzyme inhibition (not a general enzyme poison). Conditions: at concentrations in excess of those required to inhibit the β-lactamase of E. coli. It counts as biochemical.

Structures can show the parent of a compound that is named as a salt.

A word on the MIC: it is the lowest concentration found to suppress growth. Read a high MIC as a less susceptible organism. With `CC(=O)N/C=C/[S+]([O-])C1=C(C(=O)O)N2C(=O)C(C(C)OS(=O)(=O)O)C2C1` (stereo not drawn) [di-sodium salt of MM 4550A], in the data set on Klebsiella aerogenes [1] (Example 3, yellowish powder (87 mg) after cellulose column), the activity was 6,600 units/mg. Further, the MIC with Kleb. aerogenes A stood at 2.5 µg/mL; in the data set with Bacillus subtilis A, 25 µg/mL; in the data set with Enterobacter cloacae N1, 100 µg/mL; in [2] it was 20 µg/mL; with Staph. aureus Oxford it was 20 µg/mL; in data set [3], 5 µg/mL. For the same molecule, the MIC in the data set on Shigella sonnei is 5 µg/mL; in the data set on Ps. aeruginosa A it was over 100 µg/mL; in the data set on Proteus vulgaris WO 90 it was 5 µg/mL; with Strep. faecalis, 100 µg/mL; in the data set with Proteus mirabilis 13 it was 10 µg/mL; in the data set on Staph. aureus Russell, 20 µg/mL. In the data set on Prov. stuartii, this molecule yielded an MIC of 5 µg/mL.
`CC(=O)N/C=C/SC1=C(C(=O)O)N2C(=O)C(C(C)OS(=O)(=O)O)C2C1` (stereo not drawn) [MM 13902]: the “synergism when mixed with ampicillin” value in [4] is on record as “synergyses its activity”. In addition, the antibacterial activity result in data set [5] is “possesses antibacterial activity”. The “Zone Diameter on Bioautography” value came out at 21.0 mm with Salmonella typhi; 4.0 mm in data set [6]; 20.0 mm in the data set with Klebsiella aerogenes [7]; 10.5 mm with Escherichia coli 311; 4.0 mm in data set [8]; 13.5 mm in the data set with Escherichia coli 10418. The “Zone Diameter on Bioautography” value in the data set on Proteus morganii is given as 9.5 mm; in the data set with Proteus mirabilis, 13.5 mm; in the data set with Bacillus subtilis, 15.0 mm; in the data set with Enterobacter aerogenes it was “No Zone”.
For the molecule `CC(=O)N/C=C/[S+]([O-])C1=C(C(=O)O)N2C(=O)C(C(C)OS(=O)(=O)O)C2C1` (stereo not drawn) [MM 4550A], in the data set on trypsin, the inhibition of trypsin result is reported as “does not inhibit”. For the same molecule, in the data set with monoamine oxidase, the “inhibition of monoamine oxidase” value is “does not inhibit”. In the data set with Klebsiella aerogenes [1] (Example 3, partially purified salt (2.18 g brown solid)), the activity is listed as 3,100 units/mg. For the same molecule, in “stability” (monobasic salts and free acid), the “stability for isolation from mixtures” value was “not sufficiently stable to isolate from mixtures”. Further, the stability result in the data set “stability” (unsalted acid form) is listed as “tends to be unstable”. Also, the “synergism when mixed with ampicillin” value in [4] was “synergizes its activity”. For the same molecule, the “inhibition of dopa decarboxylase” value in the data set with dopa decarboxylase is listed as “does not inhibit”. In addition, the “solubility in chloroform, diethylether and hydrocarbons” value in the data set “solubility” is given as “substantially insoluble”. In addition, the solubility in methanol result in “solubility” is “soluble”. Further, the solubility in water entry in the data set “solubility” was “highly soluble”. The antibacterial activity entry in data set [9] is “possesses antibacterial activity”. The inhibition of urease result with urease was “does not inhibit”. Moreover, the inhibition of chymotrypsin result in the data set on chymotrypsin is “does not inhibit”. In the data set on carbonic anhydrase, the “inhibition of carbonic anhydrase” value is “does not inhibit”. For the same molecule, the “Zone Diameter on Bioautography” value came out at 19.5 mm with Salmonella typhi; 13.0 mm in [6]; 20.0 mm in the data set with Klebsiella aerogenes [7]; 12.0 mm in data set [8]; 20.0 mm in the data set on Escherichia coli 10418; 16.0 mm in the data set with Proteus morganii. In addition, the “Zone Diameter on Bioautography” value came out at 24.0 mm in the data set on Bacillus subtilis and 6.5 mm with Enterobacter aerogenes.

(Values after US4181716A, “Antibiotics” (Beecham Group Limited, priority 1974, dated 1980).)
